According to PMC9120017, “Inhibition mechanism of the chloride channel TMEM16A by the pore blocker 1PBC” (Nature Communications, 2022):
Read-outs that look alike come from different tables or passages of the source.

Biological target: T1, mouse TMEM16A mutant T539A (Mus musculus, UniProt Q8BHY3, T539A)
T1 construct: expressed in transfected cells; host or cells: HEK293T
T1 sequence (Q8BHY3 1-960 T539A): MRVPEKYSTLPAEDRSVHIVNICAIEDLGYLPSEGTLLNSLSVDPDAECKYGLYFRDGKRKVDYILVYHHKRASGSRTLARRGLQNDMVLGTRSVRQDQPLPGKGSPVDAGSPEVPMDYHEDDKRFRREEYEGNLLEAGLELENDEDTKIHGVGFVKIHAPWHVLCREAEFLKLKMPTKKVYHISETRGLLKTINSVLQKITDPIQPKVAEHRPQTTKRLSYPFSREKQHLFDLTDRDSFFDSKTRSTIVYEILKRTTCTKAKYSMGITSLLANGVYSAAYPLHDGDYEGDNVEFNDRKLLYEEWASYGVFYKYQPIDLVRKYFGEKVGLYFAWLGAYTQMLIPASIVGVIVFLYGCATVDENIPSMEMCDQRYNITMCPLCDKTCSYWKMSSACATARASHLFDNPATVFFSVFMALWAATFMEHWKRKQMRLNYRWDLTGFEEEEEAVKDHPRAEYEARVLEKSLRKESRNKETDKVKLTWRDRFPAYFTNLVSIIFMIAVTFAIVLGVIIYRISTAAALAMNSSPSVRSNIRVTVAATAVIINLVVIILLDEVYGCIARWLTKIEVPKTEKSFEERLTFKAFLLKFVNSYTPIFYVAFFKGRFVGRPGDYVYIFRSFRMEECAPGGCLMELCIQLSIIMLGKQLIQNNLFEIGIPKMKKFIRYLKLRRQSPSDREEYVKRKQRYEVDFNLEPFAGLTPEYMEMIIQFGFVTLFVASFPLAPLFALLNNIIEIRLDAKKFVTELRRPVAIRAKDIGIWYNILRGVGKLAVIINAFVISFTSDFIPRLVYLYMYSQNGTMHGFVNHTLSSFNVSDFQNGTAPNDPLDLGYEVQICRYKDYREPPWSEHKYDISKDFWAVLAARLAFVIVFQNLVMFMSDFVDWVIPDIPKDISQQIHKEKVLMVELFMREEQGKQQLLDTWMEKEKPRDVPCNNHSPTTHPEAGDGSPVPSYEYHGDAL
Assay: Inside-out patch recording of 1PBC block, mutant T539A
Assay type: cell-based
Settings: for remaining activity at 30 µM: 1PBC 30; for remaining activity at 30 µM / remaining activity at 100 µM: read-out: fraction of unblocked current; for remaining activity at 100 µM: 1PBC 100
Method: HEK293T cells (ATCC CRL-1573) were maintained in Dulbecco’s modified Eagle’s medium (DMEM; Sigma-Aldrich) supplemented with 10 U ml^−1 penicillin, 0.1 mg ml^−1 streptomycin (Sigma-Aldrich), 2 mM L-glutamine (Sigma-Aldrich), and 10% FBS (Sigma-Aldrich) in a humidified atmosphere containing 5% CO2 at 37 °C. HEK293S GnTI^− cells (ATCC CRL-3022) were maintained in HyClone HyCell TransFx-H medium (GE Healthcare) supplemented with 10 U ml^−1 penicillin, 0.1 mg ml^−1 streptomycin, 4 mM L-glutamine, 0.15% poloxamer 188 (Sigma-Aldrich), and 1% FBS in an atmosphere containing 5% CO2 at 185 rpm at 37 °C. The ac splice variant of mouse TMEM16A (UniProt ID: Q8BHY3), mouse TMEM16B (UniProt ID: Q8CFW1), or mouse TMEM16F (UniProt ID: Q6P9J9) bearing a 3C cleavage site, a Venus YFP, a Myc tag, and a Streptavidin-binding peptide (SBP) downstream of the open reading frame in a modified pcDNA3.1 vector (Invitrogen) were used as described previously[21],[31]. Mutations were introduced using a modified QuikChange method[58] and were verified by sequencing.
HEK293T cells were transfected with 3–4 μg DNA per 6 cm Petri dish using the calcium phosphate co-precipitation method and were used within 24–96 h after transfection. Recordings were performed on inside-out patches excised from HEK293T cells expressing the construct of interest. Patch pipettes were pulled from borosilicate glass capillaries (O.D. 1.5 mm, I.D. 0.86 mm, Sutter Instrument) and were fire-polished with a microforge (Narishige) before use. Pipette resistance was typically 3–8 MΩ when filled with the recording solutions detailed below. Seal resistance was typically 4 GΩ or higher. Voltage-clamp recordings were made using Axopatch 200B, Digidata 1550, and Clampex 10.7 (Molecular Devices). Analog signals were filtered with the in-built 4-pole Bessel filter at 10 kHz and were digitized at 20 kHz. Solution exchange was achieved using a gravity-fed system through a theta glass pipette mounted on an ultra-fast piezo-driven stepper (Siskiyou). […] All recordings were performed at 20 °C.
A symmetrical ionic condition was used throughout. Stock solution with Ca^2+-EGTA contained 150 mM NaCl, 5.99 mM Ca(OH)2, 5 mM EGTA, and 10 mM HEPES at pH 7.40. Stock solution with EGTA contained 150 mM NaCl, 5 mM EGTA, and 10 mM HEPES at pH 7.40. Free Ca^2+ concentrations were adjusted by mixing the stock solutions at the required ratios calculated using the WEBMAXC program (http://web.stanford.edu/~cpatton/webmaxcS.htm). Patch pipettes were filled with the stock solution with Ca^2+-EGTA, which has a free Ca^2+ concentration of 1 mM. 1PBC (ChemBridge) stock was reconstituted in anhydrous DMSO (Sigma-Aldrich) at 100 mM and stored at −20 °C. Working solutions with 1PBC were prepared by serial dilution. Unless otherwise stated, experiments were performed at a saturating Ca^2+ concentration as shown in Supplementary Table 1 and the primary data were corrected for current rundown as described previously[21],[25].
Concentration-response relations, obtained from the ratio of the I-V plots before and after the application of the blocker, were fitted to the Hill equation,1 I/Imax=1/1+IC50/[blocker]^h where I/Imax is the normalized current responses, IC50 defines the concentration at which inhibition is at its half-maximum, and h is the Hill coefficient.

Q: `N#Cc1c(C(F)(F)F)cc(O)n2c1nc1ccccc12` [1PBC] was tested. Which remaining activity at 30 µM (-60 mV) did it give?
A: 46.1%

Q: What about the remaining activity at 30 µM (-80 mV) of the same compound?
A: 49.4%

Q: And the remaining activity at 30 µM (-100 mV)?
A: 53.7%

Q: What about the remaining activity at 30 µM (-120 mV) of the same compound?
A: 55.9%

Q: What about the remaining activity at 30 µM (-140 mV) of the same compound?
A: 58.7%

Q: What about the remaining activity at 100 µM (0 mV) of the same compound?
A: 14.3%

Q: What about the remaining activity at 100 µM (20 mV) of the same compound?
A: 11.9%

Q: What about the remaining activity at 100 µM (40 mV) of the same compound?
A: 11.3%

Q: What about the remaining activity at 100 µM (60 mV) of the same compound?
A: 10%

Q: What about the remaining activity at 100 µM (80 mV) of the same compound?
A: 8.95%

Q: What about the remaining activity at 100 µM (100 mV) of the same compound?
A: 7.58%

Q: What about the remaining activity at 100 µM (120 mV) of the same compound?
A: 8.07%

Q: What about the remaining activity at 100 µM (140 mV) of the same compound?
A: 8.23%

Q: And the remaining activity at 100 µM (-20 mV)?
A: 16.6%

Q: What about the remaining activity at 100 µM (-40 mV) of the same compound?
A: 18.5%

Q: What about the remaining activity at 100 µM (-60 mV) of the same compound?
A: 21.3%

Q: What about the remaining activity at 100 µM (-80 mV) of the same compound?
A: 25%

Q: What about the remaining activity at 100 µM (-100 mV) of the same compound?
A: 28.2%

Q: What about the remaining activity at 100 µM (-120 mV) of the same compound?
A: 30.6%

Q: What about the remaining activity at 100 µM (-140 mV) of the same compound?
A: 34%

Q: And the IC50 (20 mV, 2 µM Ca2+)?
A: 12.9 µM

Q: And the IC50 (40 mV, 2 µM Ca2+)?
A: 11 µM

Q: And the IC50 (60 mV, 2 µM Ca2+)?
A: 9.86 µM

Q: And the “log-fold IC50 (change of mutant vs WT)” value (80 mV)?
A: 0.6239

Q: What about the IC50 (80 mV, 2 µM Ca2+) of the same compound?
A: 9.02 µM

Q: What about the IC50 (100 mV, 2 µM Ca2+) of the same compound?
A: 8.74 µM

Q: And the IC50 (120 mV, 2 µM Ca2+)?
A: 8.83 µM

Q: What about the IC50 (140 mV, 2 µM Ca2+) of the same compound?
A: 9.45 µM

Q: And the IC50 (-20 mV, 2 µM Ca2+)?
A: 17.3 µM

Q: And the IC50 (-40 mV, 2 µM Ca2+)?
A: 20.5 µM

Q: What about the IC50 (-60 mV, 2 µM Ca2+) of the same compound?
A: 24.4 µM

Q: What about the IC50 (-80 mV, 2 µM Ca2+) of the same compound?
A: 28.9 µM

Q: And the IC50 (-100 mV, 2 µM Ca2+)?
A: 34.3 µM

Q: And the IC50 (-120 mV, 2 µM Ca2+)?
A: 38.6 µM

Q: And the IC50 (-140 mV, 2 µM Ca2+)?
A: 44.4 µM

Q: And the IC50 (T539A, V 0 mV)?
A: 14.9 µM

Q: What about the IC50 (T539A, V 20 mV) of the same compound?
A: 12.9 µM

Q: What about the IC50 (T539A, V 40 mV) of the same compound?
A: 11 µM

Q: What about the IC50 (T539A, V 60 mV) of the same compound?
A: 9.86 µM

Q: And the IC50 (T539A, V 80 mV)?
A: 9.02 µM

Q: What about the IC50 (T539A, V 100 mV) of the same compound?
A: 8.74 µM

Q: And the IC50 (T539A, V 120 mV)?
A: 8.83 µM

Q: And the IC50 (T539A, V 140 mV)?
A: 9.45 µM

Q: And the IC50 (T539A, V -20 mV)?
A: 17.3 µM

Q: What about the IC50 (T539A, V -40 mV) of the same compound?
A: 20.5 µM

Q: What about the IC50 (T539A, V -60 mV) of the same compound?
A: 24.4 µM

Q: And the IC50 (T539A, V -80 mV)?
A: 28.9 µM

Q: What about the IC50 (T539A, V -100 mV) of the same compound?
A: 34.3 µM

Q: What about the IC50 (T539A, V -120 mV) of the same compound?
A: 38.6 µM

Q: And the IC50 (T539A, V -140 mV)?
A: 44.4 µM
